{"source": "patent US20230106592A1", "about": "“METHOD FOR TREATING CANCER USING A COMBINATION OF DNA DAMAGING AGENTS AND ATR INHIBITORS” (Vertex Pharmaceuticals Incorporated, priority 2015, published 2023)", "origin": "cited, not measured here", "test_system": "ovarian cancer", "details": "cited from earlier work", "note": "Where two headings read alike, the source gives them in different places."}
{"smiles": "Cn1ncnc1[C@H]1c2n[nH]c(=O)c3cc(F)cc(c23)N[C@@H]1c1ccc(F)cc1", "note": "[Talazoparib]", "values": [{"measurement": "Outcome of prior line of treatment", "setting": "monotherapy, refractory high grade serous ovarian cancer subject", "value": "progressive disease after 10 months"}]}
{"smiles": "O=C(c1cc(Cc2n[nH]c(=O)c3ccccc23)ccc1F)N1CCN(C(=O)C2CC2)CC1", "note": "[olaparib]", "values": [{"measurement": "Outcome of prior line of treatment", "setting": "ovarian cancer subject with BRCA2 germline mutation", "value": "no response"}]}
